Test results taken from ChEMBL document CHEMBL3045087, “Physicochemical interaction of antitumor acridinone derivatives with DNA in view of QSAR studies” (2011).

Key:
DNA = conditions: Bos taurus
Description: Binding affinity to Bos taurus (calf) thymus DNA assessed as change in melting temperature at drug to DNA base pair ratio 0.25 M

P388 = experiment: Antitumor activity against Mus musculus (mouse) P388 cells xenografted in Mus musculus (mouse) assessed as increase in survival time relative to control; format: functional; parameters: concentration or dose not given beside the values

| SMILES | ΔTm (DNA) [°C] | Increase in survival time (P388) [%] |
| --- | --- | --- |
| CN(C)CCNc1ccc2nnn3c4ccccc4c(=O)c1c23 | 9.1 | 77 |
| CN(C)CCCNc1ccc2nnn3c4ccc(O)cc4c(=O)c1c23 | 15.1 | 165 |
| CCN(CC)CCNc1ccc2nc(C)n3c4ccc(O)cc4c(=O)c1c23 | 15.3 | 185 |
| CN(C)CCCNc1ccc2ncn3c4ccc(O)cc4c(=O)c1c23 | 3.5 | 120 |
| CCN(CC)CCNc1ccc2ncn3c4cc(O)ccc4c(=O)c1c23 | 8.3 | 27 |
| CCN(CC)CCNc1ccc2ncn3c4ccc(C(C)(C)C)cc4c(=O)c1c23 | 2.4 | 0 |
| CN(C)CCCCCNc1ccc2ncn3c4ccccc4c(=O)c1c23 | 9.9 | 10 |
| CN(C)CCNc1ccc2ncn3c4ccccc4c(=O)c1c23 | 9.5 | 90 |
| CN(C)CCN(C)c1ccc2nnn3c4ccc(O)cc4c(=O)c1c23 | 8.1 | 10 |
| CN(C)CCNc1ccc2nnn3c4ccc(C(C)(C)C)cc4c(=O)c1c23 | 6.8 | 0 |
| CN(C)CCCNc1ccc2ncn3c4ccccc4c(=O)c1c23 | 11.5 | 25 |
| CN(C)CCNc1ccc2ncn3c4ccc(O)cc4c(=O)c1c23 | 12.3 | 110 |
| CN(C)CCCCCNc1ccc2ncn3c4ccc(O)cc4c(=O)c1c23 | 13.1 | 85 |
| CN(C)CCNc1ccc2nnn3c4ccc(O)cc4c(=O)c1c23 | 13.1 | 102 |
| CCN(CC)CCNc1ccc2ncn3c4ccccc4c(=O)c1c23 | 7.2 | 55 |
| CCNCCNc1ccc2nnn3c4ccc(O)cc4c(=O)c1c23 | 7.1 | 78 |
| CCN(CC)CCCCCNc1ccc2ncn3c4ccc(C)cc4c(=O)c1c23 | 10.5 | 20 |
| Cc1ccc2c(c1)c(=O)c1c(NCCCN(C)C)ccc3nnn2c31 | 11.5 | 18 |
| CCN(CC)CCNc1ccc2ncn3c4ccc(O)cc4c(=O)c1c23 [C-1311] | 13.7 | 93 |
| CCN(CC)CCNc1ccc2ncn3c4ccc(OC)cc4c(=O)c1c23 | 11.5 | 96 |
